Measurements as given in patent US20230026840A1, “COMPOUND USED AS EGFR KINASE INHIBITOR AND USE THEREOF” (TYK MEDICINES, INC., priority 2019, published 2023).

What follows are compounds tested against EGFR (L858R/T790M/C797S) kinase (Homo sapiens, UniProt P00533, C797S/L858R/T790M) (assay: Kinase activity assay against EGFR(L858R/T790M/C797S) kinase at ATP Km concentration (33P-ATP, filter-binding)). Details: 10 concentrations, 20 min preincubation, 2 h reaction at room temperature.
EGFR (L858R/T790M/C797S) kinase, sequence (P00533 25-1210 T790M/C797S/L858R): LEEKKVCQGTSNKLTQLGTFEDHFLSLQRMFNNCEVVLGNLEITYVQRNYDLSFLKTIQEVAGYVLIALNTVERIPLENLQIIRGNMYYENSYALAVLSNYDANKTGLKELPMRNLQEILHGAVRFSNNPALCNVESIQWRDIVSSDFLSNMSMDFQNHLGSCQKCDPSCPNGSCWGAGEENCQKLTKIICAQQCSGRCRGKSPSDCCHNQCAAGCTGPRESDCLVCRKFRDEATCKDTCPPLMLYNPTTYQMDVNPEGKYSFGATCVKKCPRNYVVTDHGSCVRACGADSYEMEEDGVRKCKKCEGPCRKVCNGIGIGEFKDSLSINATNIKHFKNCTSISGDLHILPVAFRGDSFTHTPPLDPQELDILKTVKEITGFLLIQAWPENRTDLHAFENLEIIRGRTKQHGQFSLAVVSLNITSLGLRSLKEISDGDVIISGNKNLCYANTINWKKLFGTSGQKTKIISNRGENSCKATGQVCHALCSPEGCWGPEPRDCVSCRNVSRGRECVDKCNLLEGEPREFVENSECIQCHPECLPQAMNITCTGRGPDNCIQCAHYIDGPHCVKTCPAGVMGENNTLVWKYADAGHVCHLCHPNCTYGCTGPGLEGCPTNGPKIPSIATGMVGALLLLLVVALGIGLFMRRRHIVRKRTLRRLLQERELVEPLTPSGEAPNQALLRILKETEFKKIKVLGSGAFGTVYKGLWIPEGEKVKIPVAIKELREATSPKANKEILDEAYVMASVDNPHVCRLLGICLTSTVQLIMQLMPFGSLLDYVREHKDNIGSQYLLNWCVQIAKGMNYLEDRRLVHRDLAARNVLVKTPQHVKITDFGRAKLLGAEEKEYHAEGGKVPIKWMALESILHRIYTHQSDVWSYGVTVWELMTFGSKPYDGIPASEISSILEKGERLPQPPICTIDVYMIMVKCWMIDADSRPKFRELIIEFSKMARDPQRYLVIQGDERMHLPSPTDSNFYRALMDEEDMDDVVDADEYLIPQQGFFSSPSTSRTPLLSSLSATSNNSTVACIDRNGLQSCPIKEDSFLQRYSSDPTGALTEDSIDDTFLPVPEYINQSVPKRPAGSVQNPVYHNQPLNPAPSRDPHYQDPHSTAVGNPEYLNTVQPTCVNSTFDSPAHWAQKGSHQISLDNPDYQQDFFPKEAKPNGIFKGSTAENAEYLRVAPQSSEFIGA
Type: biochemical
Protocol: The biological activity screening of the compounds will be determined repeatedly at 10 concentrations.
Each sample was prepared into a solution with a concentration of 10 mM. […]
a. Preparing basic buffer solution and quenching buffer solution for experimental kinase […]
b. Preparing compounds for experimental kinase
The test compound was dissolved in 100% dimethyl sulfoxide to a specific concentration. Integra Viaflo Assist was used to assist DMSO for (continuous) dilution.
Kinase was added to the newly prepared basic reaction buffer
Adding any desired cofactors to the substrate solution.
Acoustic technology (Echo 550; Nanoliter range) was used to feed the compounds in 100% of dimethyl sulfoxide into the kinase reaction mixture and incubated at room temperature for 20 minutes.
33P-ATP (specific activity 10 Ci/l) was added to the reaction mixture to start the reaction.
Incubated at room temperature for 2 hours
Radioactivity was detected by filter-binding method.
Kinase activity data was expressed as the percentage of remaining kinase activity in the test sample compared to the vehicle (dimethyl sulfoxide) reaction. Prism ([…] software) was used to obtain IC50 value and curve-fitting.
`[2H]C(F)(F)Oc1cc(N2C[C@H]3CN(C)C[C@H]3C2)ccc1Nc1ncc(Cl)c(Nc2ccccc2P(C)(C)=O)n1` [Compound C1] showed an IC50 of 0.0124 µM.
Work on `[2H]C(F)(F)Oc1cc(N2CC3CC(C2)N3)ccc1Nc1ncc(Cl)c(Nc2ccccc2P(C)(C)=O)n1` [Compound C2] yielded an IC50 of 0.0166 µM.
In the case of `[2H]C(F)(F)Oc1cc(N2CC3CC(C2)N3C)ccc1Nc1ncc(Cl)c(Nc2ccccc2P(C)(C)=O)n1` [Compound C3], the IC50 is reported as 0.13 µM.
For `[2H]C(F)(F)Oc1cc(N2C[C@H]3CNC[C@H]3C2)ccc1Nc1ncc(Cl)c(Nc2ccccc2P(C)(C)=O)n1` [Compound C4], the IC50 was 0.107 µM.
`[2H]C(F)(F)Oc1cc(N2C3CC2CN(C)C3)ccc1Nc1ncc(Cl)c(Nc2ccccc2P(C)(C)=O)n1` [Compound C5] showed an IC50 of 0.321 µM.
`[2H]C(F)(F)Oc1cc(N2CC3CCCNC3C2)ccc1Nc1ncc(Cl)c(Nc2ccccc2P(C)(C)=O)n1` (centres unmarked) [Compound C6] was tested, and the IC50 was 0.178 µM.
For `[2H]C(F)(F)Oc1cc(-n2cc3c(n2)CNC3)ccc1Nc1ncc(Cl)c(Nc2ccccc2P(C)(C)=O)n1` [Compound C7], the IC50 was 0.0223 µM.
For `[2H]C(F)(F)Oc1cc(-n2cc3c(n2)CN(C)C3)c(C)cc1Nc1ncc(Cl)c(Nc2ccccc2P(C)(C)=O)n1` [Compound C9], the IC50 was 0.181 µM.
With `[2H]C(F)(F)Oc1cc(-n2ncc3c2CN(C)C3)c(C)cc1Nc1ncc(Cl)c(Nc2ccccc2P(C)(C)=O)n1` [Compound C10] the IC50 was 1.85 µM.
Compound `[2H]C(F)(F)Oc1cc(N2CC3CCN(C)C3C2)ccc1Nc1ncc(Cl)c(Nc2ccccc2P(C)(C)=O)n1` (centres unmarked) [Compound C11] has an IC50 of 0.0176 µM.
In the case of `[2H]C(F)(F)Oc1cc(N2CC3CCNC3C2)ccc1Nc1ncc(Cl)c(Nc2ccccc2P(C)(C)=O)n1` (centres unmarked) [Compound C12], the IC50 is reported as 0.0747 µM.
Work on `[2H]C(F)(F)Oc1cc(N2C3CNCC2C3)ccc1Nc1ncc(Cl)c(Nc2ccccc2P(C)(C)=O)n1` [Compound C13] yielded an IC50 of 0.0166 µM.
Compound `[2H]C(F)(F)Oc1cc(-n2cc3c(n2)CN(C)C3)ccc1Nc1ncc(Cl)c(Nc2ccccc2P(C)(C)=O)n1` [Compound C14] has an IC50 of 0.0137 µM.
In the case of `[2H]C(F)(F)Oc1cc(N2C[C@H]3COC[C@H]3C2)ccc1Nc1ncc(Cl)c(Nc2ccccc2P(C)(C)=O)n1` [Compound C20], the IC50 is reported as 0.0696 µM.
In the case of `CCc1cc(Nc2ncc(Br)c(Nc3ccc4nccnc4c3P(C)(C)=O)n2)c(OC)cc1N1C[C@H]2CN(C)C[C@H]2C1` [Compound C22], the IC50 is reported as 0.0003 µM.
In the case of `COc1cc2c(cc1Nc1ncc(Cl)c(Nc3ccccc3P(C)(C)=O)n1)CCCN2CCN1CCN(C)CC1` [Compound C23], the IC50 is reported as 0.0205 µM.
`COc1cc2c(cc1Nc1ncc(Cl)c(Nc3ccccc3P(C)(C)=O)n1)CCCN2C(=O)CN1CCN(C)CC1` [Compound C24] gave an IC50 of 0.0195 µM.
With `COc1cc2c(cc1Nc1ncc(Cl)c(Nc3ccccc3P(C)(C)=O)n1)CCCN2CC(=O)N1CCN(C)CC1` [Compound C25] the IC50 was 0.803 µM.
`CCc1cc(Nc2nc(Nc3ccc4nccnc4c3P(C)(C)=O)c3ccccc3n2)c(OC)cc1N1C[C@H]2CN(C)C[C@H]2C1` [Compound C27] was tested, and the IC50 was 0.204 µM.
`CCc1cc(Nc2nc(Nc3ccc4nccnc4c3P(C)(C)=O)c3cccnc3n2)c(OC)cc1N1C[C@H]2CN(C)C[C@H]2C1` [Compound C28] was tested, and the IC50 was 0.803 µM.
